Values of other authors in patent publication US7524881B2, “Production of Δ 9 tetrahydrocannabinol” (Resolution Chemicals Limited, priority 2002, dated 2009).

Details: for psychomimetic activity: qualitative background statement

C=C(C)[C@@H]1CCC(C)=C[C@H]1c1c(O)cc(CCCCC)cc1O [Cannabidiol (CBD), cannabidiol]
psychomimetic activity: little activity

CCCCCc1cc2c(c(O)c1C(=O)O)[C@@H]1C=C(C)CC[C@H]1C(C)(C)O2 [THCA-A, Δ9-THC carboxylic acid]
psychomimetic activity: psychomimetically inactive

CCCCCc1cc2c(c(O)c1C(=O)O)[C@@H]1C=C(C)CC[C@H]1C(C)(C)O2 [THCA-B, Δ9-THC carboxylic acid]
psychomimetic activity: psychomimetically inactive

CCCCCc1cc(O)c2c(c1)OC(C)(C)[C@@H]1CCC(C)=C[C@@H]21 [Δ9-THC, Delta 9 tetrahydrocannabinol]
psychomimetic activity relative to Δ8-THC (compared with Δ8-THC): 20 times
